Data from patent publication US9199975B2, “Biaryl imidazole derivatives for regulating CYP17” (Asana Biosciences, LLC, priority 2011, dated 2015).

Molecular target: T1, human CYP17 (Homo sapiens, UniProt P05093)
T1 sequence (P05093 1-508): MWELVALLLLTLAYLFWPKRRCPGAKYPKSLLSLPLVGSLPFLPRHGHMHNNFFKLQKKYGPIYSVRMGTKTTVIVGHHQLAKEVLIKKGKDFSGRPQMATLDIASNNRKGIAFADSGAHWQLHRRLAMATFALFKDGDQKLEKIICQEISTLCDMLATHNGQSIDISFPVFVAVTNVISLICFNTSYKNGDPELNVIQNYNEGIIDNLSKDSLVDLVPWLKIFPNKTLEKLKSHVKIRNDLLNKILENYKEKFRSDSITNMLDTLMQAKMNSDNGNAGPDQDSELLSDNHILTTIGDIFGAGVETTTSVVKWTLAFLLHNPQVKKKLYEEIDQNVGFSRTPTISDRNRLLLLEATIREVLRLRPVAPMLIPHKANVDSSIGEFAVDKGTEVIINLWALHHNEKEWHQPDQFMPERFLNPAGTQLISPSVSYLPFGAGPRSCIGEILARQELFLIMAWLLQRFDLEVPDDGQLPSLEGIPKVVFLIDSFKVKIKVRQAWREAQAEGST
Assay: Cell-based human CYP17 inhibition assay, H295R adrenocortical carcinoma cells
Design: H295R Adrenocortical carcinoma cells [NCI-H295A, ATCC Number CRL-2128, American Type Culture Collection; host or cells: H295R adrenocortical carcinoma cells
Details: 16 hours at 37° C., read-out: CYP17 (human H295R adrenal cells)
Description: Cell-Based Human CYP17 Inhibition Assay
A. Materials • 1. H295R Adrenocortical Carcinoma Cells and Growth Media: The media for the H295R Adrenocortical carcinoma cells [NCI-H295A, ATCC Number CRL-2128, American Type Culture Collection, Manassas, Va., US] (500 mL) was a DMEM:F12 Mix 1:1 with 5% […] BD Nu Serum; 1% (5 mL) ITS+Premix [BD Biosciences] and 1% Penstrep. • 2. LNCap-CYP17 Cells and Growth Media: Full length hCYP17a1 gene (NCBI Reference Sequence: NM_000102.3) was cloned in pCDNA3.1(+) vector between HindIII and XhoI site. The pCDNA3.1(+) vector contains the Neomycin resistance gene and was used for selection of stable cell line. The hCYP17a1 containing pCDNA3.1(+) was transfected into LNCap cells to create the LNCap-CYP17 cell line. The media for the LNCaP-CYP17 cells was RPMI 1640, 10% FBS, 1% PenStrep, Geneticin 400 μg/mL.
The H295R cells or LNCaP-hCYP17 cells were subcultured and 30,000 cells per well were seeded in a poly-d lysine plate and incubated overnight at 37° C. The next day the media was removed and 200 µL of fresh media with ^3H3-17α-hydroxy-pregnenolone (1:1000) was added. 50 μL of serially diluted compounds from a 5× plate (5 times the final desired concentration) was added. The working concentration range for active, new compounds started from a high concentration of […] with 3-fold serial dilutions generating up to 10 concentrations. The serial dilution in the 100× plate (in DMSO) and the stamping of a 5× plate (in media) from the 100× plate were carried out using a TECAN liquid handling device.
The plates were incubated overnight (16 hours) at 37° C. After 16 hours, the media was removed (approximately 220 μL) and an equal amount of chloroform was added, mixed and incubated for 30 minutes at 4 degrees. The plate was centrifuged at 4000 rpm for 15 minutes at 4° C., following which the top aqueous layer was carefully removed and added into a new deep well plate. An equal volume of activated 5% charcoal was added, mixed and incubated for 30 minutes at 4° C. The plate was then centrifuged at 4000 rpm for 15 minutes at 4° C. and the top layer carefully separated, avoiding any charcoal contamination, and placed in a white, clear bottom plate (plate cat #3610, Corning Life Sciences). An equal volume of Microscint™ 40 was added and mixed well. Following the incubation for 30 minutes, readings for the radiotracer were taken using a Microbeta® trilux.

SMILES	IC50 [nM]
CCC(c1ccc(-c2ccc(NC(C)=O)cc2)cn1)n1ccnc1 (stereo not shown) [Example 43, N-{4-[6-(1-Imidazol-1-yl-propyl)-pyridin-3-yl]-phenyl}-acetamide]	50 to 200
CCC(c1cnc(-c2cn[nH]c2)s1)n1ccnc1 (stereo not shown) [Example 44, 5-(1-Imidazol-1-yl-propyl)-2-(1H-pyrazol-4-yl)-thiazole]	50 to 200
CCC(c1ccc(-c2cccc(F)c2)cn1)n1ccnc1 (stereo not shown) [Example 45, 5-(3-Fluoro-phenyl)-2-(1-imidazol-1-yl-propyl)-pyridine]	< 50
CCc1cc(F)ccc1-c1ncc(C(CC)n2ccnc2)s1 (stereo not shown) [Example 46, 2-(2-Ethyl-4-fluoro-phenyl)-5-(1-imidazol-1-yl-propyl)-thiazole]	< 50
CCC(c1ccc(-c2ccc(OC)cc2)cn1)n1ccnc1 (stereo not shown) [Example 47, 2-(1-Imidazol-1-yl-propyl)-5-(4-methoxy-phenyl)-pyridine]	50 to 200
CCC(c1ccc(-c2ccccc2F)cn1)n1ccnc1 (stereo not shown) [Example 48, 5-(2-Fluoro-phenyl)-2-(1-imidazol-1-yl-propyl)-pyridine]	< 50
CC(c1ccc(-c2ccc(O)cc2)s1)n1ccnc1 (stereo not shown) [Example 49, 4-[5-(1-Imidazol-1-yl-ethyl)-thiophen-2-yl]-phenol]	< 50
CCC(c1cnc(-c2ccc(OC)nc2)s1)n1ccnc1 (stereo not shown) [Example 51, 5-[5-(1-Imidazol-1-yl-propyl)-thiazol-2-yl]-2-methoxy-pyridine]	50 to 200
CC(C)(c1ccc(-c2ccc(O)cc2)cn1)n1ccnc1 [Example 52, 4-[6-(1-Imidazol-1-yl-1-methyl-ethyl)-pyridin-3-yl]-phenol]	50 to 200
CCC(c1ccc(-c2cccc(C#N)c2)cn1)n1ccnc1 (stereo not shown) [Example 53, 3-[6-(1-Imidazol-1-yl-propyl)-pyridin-3-yl]-benzonitrile]	50 to 200
CCOC(=O)c1ccc(-c2ncc(C(C)n3ccnc3)s2)cc1 (stereo not shown) [Example 55, 4-[5-(1-Imidazol-1-yl-ethyl)-thiazol-2-yl]-benzoic acid ethyl ester]	50 to 200
CCC(c1ccc(-c2ccccc2OC)cn1)n1ccnc1 (stereo not shown) [Example 56, 2-(1-Imidazol-1-yl-propyl)-5-(2-methoxy-phenyl)-pyridine]	50 to 200
COc1ccc(-c2ncc(C(C)n3ccnc3)s2)cn1 (stereo not shown) [Example 58, 5-[5-(1-Imidazol-1-yl-ethyl)-thiazol-2-yl]-2-methoxy-pyridine]	50 to 200
CCC(c1cnc(-c2ccc(=O)[nH]c2)s1)n1ccnc1 (stereo not shown) [Example 59, 5-[5-(1-Imidazol-1-yl-propyl)-thiazol-2-yl]-1H-pyridin-2-one]	201 to 10000
CC(c1cnc(-c2ccc(=O)[nH]c2)s1)n1ccnc1 (stereo not shown) [Example 63, 5-[5-(1-Imidazol-1-yl-ethyl)-thiazol-2-yl]-1H-pyridin-2-one]	201 to 10000
CC(c1cnc(-c2ccc(C(=O)O)cc2)s1)n1ccnc1 (stereo not shown) [Example 65, 4-[5-(1-Imidazol-1-yl-ethyl)-thiazol-2-yl]-benzoic acid]	201 to 10000
COc1ccc(-c2cccnc2C(C)n2ccnc2)cc1 (stereo not shown) [Example 66, 2-(1-(1H-imidazol-1-yl)ethyl)-3-(4-methoxyphenyl)-pyridine]	< 50

Next, values leading:

IC50 [nM]	SMILES
50 to 200	COc1ccc(-c2cccc(C(C)n3ccnc3)n2)cc1 (stereo not shown) [Example 42, 2-(1-Imidazol-1-yl-ethyl)-6-(4-methoxy-phenyl)-pyridine]
< 50	CCC(c1ccc(-c2ccc(O)cc2)cn1)n1ccnc1 (stereo not shown) [Example 50, 4-[6-(1-Imidazol-1-yl-propyl)-pyridin-3-yl]-phenol]
201 to 10000	CC(c1ccc(-c2ccc(F)cc2)nc1)n1ccnc1 (stereo not shown) [Example 54, 2-(4-Fluoro-phenyl)-5-(1-imidazol-1-yl-ethyl)-pyridine]
50 to 200	CC(c1ccc(-c2cccc(F)c2)cn1)n1ccnc1 (stereo not shown) [Example 57, 5-(3-Fluoro-phenyl)-2-(1-imidazol-1-yl-ethyl)-pyridine]
50 to 200	CCC(c1cnc(-c2ccc(O)cc2)s1)n1ccnc1 (stereo not shown) [Example 60, 4-[5-(1-Imidazol-1-yl-propyl)-thiazol-2-yl]-phenol]
50 to 200	COc1ccc(-c2ccc(C(C)(C)n3ccnc3)nc2)cc1 [Example 61, 2-(1-Imidazol-1-yl-1-methyl-ethyl)-5-(4-methoxy-phenyl)-pyridine]
50 to 200	COc1ccc(-c2ccc(C(CC(C)C)n3ccnc3)nc2)cc1 (stereo not shown) [Example 62, 2-(1-Imidazol-1-yl-3-methyl-butyl)-5-(4-methoxy-phenyl)-pyridine]
201 to 10000	CC(=O)Nc1ccc(-c2ccc(C(C)n3ccnc3)nc2)cc1 (stereo not shown) [Example 64, N-{4-[6-(1-Imidazol-1-yl-ethyl)-pyridin-3-yl]-phenyl}-acetamide]
